Measured values taken from PMC11124341, “4-Hydroxybenzoic Acid-Based Hydrazide–Hydrazones as Potent Growth Inhibition Agents of Laccase-Producing Phytopathogenic Fungi That Are Useful in the Protection of Oilseed Crops” (Molecules, 2024).

How the values were obtained:
MCF-10A cells = assay: Antiproliferative assay in vitro (SRB); assay type: cell-based, human; conditions: Homo sapiens, MCF-10A; 72 h exposure, SRB method; read-out: Average IC50 ± SD, MCF-10A line
Protocol: (§1) Antiproliferative tests were performed on a normal human breast cell line, MCF-10A, and a mouse embryonic fibroblast: Balb/3T3. Both cell lines were obtained from the American Type Culture Collection (Rockville, MD, USA). The cell lines were maintained in the Institute of Immunology and Experimental Therapy, Wroclaw, Poland. MCF-10A cells were cultured in the F-12 nutrient mixture (Gibco, Scotland, UK), supplemented with 5% horse serum (Gibco, Scotland, UK), […] (Vibrio cholerae Pacini), 10 μg/mL of hydrocortisone and 20 ng/mL of human epidermal growth factor (all from Sigma-Aldrich, Chemie GmbH, Steinheim, Germany). Balb/3T3 cells were cultured in Dulbecco medium (Gibco, Darmstadt, Germany) supplemented with 10% fetal bovine serum (Thermo Fisher Scientific, Waltham, MA, USA) and 2 mM l-glutamine (Sigma-Aldrich, St. Louis, MO, USA). All culture media contained antibiotics: 100 U/mL penicillin (Sigma-Aldrich, St. Louis, MO, USA) and 100 µg/mL streptomycin (Polfa-Tarchomin, Warsaw, Poland). Both cell lines were cultured during the entire experiment in a humid atmosphere at 37 °C and 5% CO2. Amistar 250 SC (fungicide) with active compound azoxystrobin was provided by the Institute of Soil Science and Plant Cultivation, National Research Institute in Pulawy, Department of Weed Science and Tillage Systems in Wroclaw, Poland […].
(§2) Twenty-four hours prior to the applications of the tested compounds, MCF-10A and Balb/3T3 cells were plated in 96-well plates at a density of 10^4 cells per well and cultured at 37 °C in a humid atmosphere saturated with 5% CO2 for 24 h. Stock solutions of the compounds were prepared ex tempore for each test by dissolving in DMSO. The cells were also exposed to the reference drugs: cis-platin (Accord, London, UK) (10–0.01 µg/mL) and DMSO (Sigma-Aldrich) (at the concentrations corresponding to those in the tested agent dilutions). The solutions were then diluted in culture medium RPMI 1640 + Opti-MEM (1:1) (both from Gibco, Scotland, UK), supplemented with 2 mM l-glutamine, 5% fetal bovine serum (all from Sigma-Aldrich Chemie GmbH, Steinheim, Germany). An assay was performed after 72 h of exposure to the tested compounds 13, 17, 18, 19, 25, 27, 30, 4-hba, 4-hbah, and 3,4,5-hba (0.5, 5.0, 50, and to 500 µM) and azoxystrobin fungicide (0.05, 0.5, 5.0 and 50 µM). The antiproliferative effect in vitro was determined by the SRB method (sulforhodamine B colorimetric assay). The optical densities of the samples were measured on the Synergy H4 photometer (BioTek Instruments, Winooski, VT, USA) at 540 nm. The results were calculated as 50% inhibitory concentration (IC50), namely the dose of the tested compound inhibiting proliferation of the tested cells by 50% as compared to the untreated control cells, in the Prolab-3 system based on Cheburator 0.4 software using the two-point method. Each test was repeated 3–5 times.
(§3) Cytotoxicity was performed on two normal cell lines: MCF -10A and Balb/3T3, using as controls cis-platin in the concentrations of 0.03 32, 0.3 32, 3.32 and 33.2 µM and azoxystrobin fungicide in the […]
(§4) were tested in the concentrations of 0.5, 5.0, 50, and 500 µM. The relation of compound concentration […]
(§5) Further, a comparison of the influence of each tested concentration in the group of tested compounds on cell lines was illustrated in Figure S130 a (MCF-10A) and b (Balb/T3T).
(§6) Table S4. Cytotoxicity results for compounds 13, 17, 18, 19, 25, 27, and 30 investigated on normal mammalian lines: MCF -10A and B alb/3T3 using Azoxystrobin (fungicide) and cis-platin as reference compounds.
(§7) Cytotoxicity profile presented as proliferation inhibition, % (y -axis) in the function of compound concentration, […]
(§8) Structure MCF-10A Balb/3T3
(§9) Proliferation inhibition [%] […]

Balb/3T3 cells = assay: Antiproliferative assay in vitro (SRB); assay type: cell-based, mouse; conditions: Mus musculus, BALB/3T3; 72 h exposure, SRB method; read-out: Average IC50 ± SD, Balb/3T3 line
Protocol: as §1, §2, §3, §4, §5, §6, §7, §8, §9

[1] = tested on: rapeseed (Brassica napus L. var. napus) seeds; assay: Phytotest 1: phytotoxicity, seed germination and root growth; assay type: in vivo; conditions: 50 µg/mL; versus water–ethanol 0.5% (v/v) control; <90% inhibition, 90–110% no effect, >110% stimulation
Source text: (§10) In the experiments with plants, two aspects were taken under consideration: (1) phytotoxicity, which determined the toxicity of the hydrazide–hydrazones on seed germination and root growth, and (2) study on the behavior of seeds in the presence of the tested hydrazide–hydrazones and pathogens producing laccase (B. cinerea and S. sclerotiorum). The non-coated seeds of Linum usitatissimum, Helianthus annuus, and Brassica napus var. napus were provided by the Institute of Soil Science and Plant Cultivation, National Research Institute in Pulawy, Department of Weed Science and Tillage Systems, and Institute of Technology and Life Sciences–National Research Institute Falenty (Poland). Both phytotests were performed based on direct-contact microbiotests following the protocol recommended by the manufacturer (PhytotestkitTM, MicroBio Tests, Mariakerke, Belgium) with the authors’ modifications.
(§11) The main phytotest equipment (Tigret, Warsaw, Poland) and general methods are described as follows. Test plates (21 × 15.5 × 0.8 cm) provide optimal moisture and enable observation of seed germination and data reading at the end of the test. A single plate is made of polyvinylchloride and composed of both a transparent bottom and a covering part that are stuck together by a set of press buttons. […] Such prepared wet support was covered with a black filter paper that soaked the solution and was applied for further testing.
(§12) In the assay of phytotoxicity (1), the seeds of three dicota plants were used, namely ten seeds of flax or rapeseed and six seeds of sunflower. The seeds were transferred directly on the filter surface by placing them along the line at approximately 1 cm from the ridge at equal distances. Then, the seeds on the filter surface were covered with a covering part and placed in a holder.
(§13) All test plates were put vertically in a special incubator to allow free germination and growth of roots at 25 °C through 5 days in the dark. The test was performed in triplicate for each test plant. The results were expressed as the germination index values (GI, Equation (2)) concerning the plant growth controls in water–ethanol solution for (1). […] The GI was calculated from the formula and categorized as an inhibition for GI values < 90%, as stimulation > 110%, and between 90 and 110% as non-toxic/no effect as proposed in the literature. (2) GI,%=Gs×Ls/Gc×Lc×100% where Gs is seed germination (%), Ls is root elongation (mm) for the test plate, and Gc and Lc are corresponding values for the control plates. Gc was calculated as the proportion of germinated seeds in the test in relation to the number of germinated seeds in the control. The control was the representative number of seeds that germinated on a medium with 0.5% (v/v) of ethanol.

[2] = tested on: flax (Linum usitatissimum L.) seeds; assay: as above; assay type: in vivo; conditions: 50 µg/mL; versus water–ethanol 0.5% (v/v) control; <90% inhibition, 90–110% no effect, >110% stimulation
Source text: as §10, §11, §12, §13

Row | Compound | IC50 (MCF-10A cells) | IC50 (Balb/3T3 cells) | melting point | Germination index (GI), rapeseed, test 1 [1] | Germination index (GI), flax, test 1 [2]
1 | O=C(N/N=C/c1cc(O)ccc1O)c1ccc(O)cc1 [compound 13] | 213 ± 34.1 µM | 132 ± 9.22 µM | 304 °C (dec.) |  | 
2 | COc1cc(/C=N/NC(=O)c2ccc(O)cc2)ccc1O [compound 17] | 275 ± 41.5 µM | 217 ± 61.2 µM |  | 81% | 
3 | CC(C)(C)c1cccc(/C=N/NC(=O)c2ccc(O)cc2)c1O [compound 18] | 6.41 ± 2.05 µM | 11.4 ± 2.54 µM |  | 67% | stimulating
4 | O=C(N/N=C/c1cccc(-c2ccccc2)c1O)c1ccc(O)cc1 [compound 19] | 3.44 ± 0.83 µM | 3.97 ± 0.15 µM |  | stimulating | 
5 | Cc1cc(/C=N/NC(=O)c2ccc(O)cc2)c(O)c(CO)c1 [compound 25] | 27.5 ± 1.83 µM | 27.2 ± 4.3 µM |  | stimulated | stimulated
6 | CC(C)(C)c1cc(/C=N/NC(=O)c2ccc(O)cc2)c(O)c(C(C)(C)C)c1 [compound 27] | 7.73 ± 1.08 µM | 11.7 ± 0.69 µM |  | 83% | 
7 | Cc1cc(/C=N/NC(=O)c2ccc(O)cc2)c(O)c(C(C)(C)C)c1 [compound 30] | 8.85 ± 5.47 µM | 23.1 ± 3.87 µM |  |  | 
